From patent US20250186379A1, “METHODS AND AGENTS FOR DECREASING INSULIN RESISTANCE” (Whitehead Institute for Biomedical Research, priority 2021, published 2025)
“Also recorded” adds a separate entry of the source.

What was measured:
[1] = test system: lipogenic and gluconeogenesis genes (FASN, PCK1); test: Expression of lipogenic and gluconeogenesis genes (RNA-seq, RT-qPCR) in HepG2 cells; type: cell-based, human
Procedure: RNA was extracted using TRIzol™ reagent (Thermo Fisher Scientific, 15596026) following the manufacturer's instructions. cDNA synthesis was performed using qScript cDNA Supermix (QuantaBio, 95048-500) according to the manufacturer's instructions, using 1000 ng RNA as starting material.
qPCR was performed on a Thermo Fisher Scientific QuantStudio 6 machine using Fast SYBR™ Green Master Mix (Thermo Fisher, 4385618) and primers (listed below) according to the manufacturer's instructions. Expression data is presented after calculating the relative expression compared with the housekeeping gene RPLP0, using the equation Relative Quantification (RQ)=100/(2^(Target Gene Ct—RPLP0 Ct). When data is reported relative to a sample condition, the condition of reference was set as 1 and the data of the other conditions were reported as a ratio (condition/condition of reference).
RNA sequencing was performed by the Whitehead Institute Genome Technology Core. Libraries were prepared using the KAPA HyperPrep stranded RNA kit (Roche, KK8540) following manufacturer's instructions. Samples were sequenced on a HiSeq2500 in High-Output mode generating 50 bases, single-end reads.
RNA-sequencing (RNA-seq) bioinformatics analysis was performed on the Whitehead High-Performance Computing Facility using the nf-core RNA-seq pipeline v1.4.2^13 with Nextflow v20.04.1. Quality control of .fastq files was performed with FastQC v0.11.8. The reads were single-end and the strandedness was set to reverse. Low quality sequences were trimmed using Trim Galore!v0.6.4. Alignment was performed against the hg19 genome assembly using STAR v2.6.1d^17 and duplicates were marked using Picard MarkDuplicates v2.21.1. Quantification of transcripts was performed using featureCounts v1.6.4^18. Differential expression analysis was performed using edgeR v3.26.5^19. deepTools v3.3.1^20, dupRadar v1.14.0^21, Qualimap v.2.2.2-dev^22, and MultiQC v1.7 were used for quality control. […]

[2] = test system: phosphorylated IRS1 (pIRS1); test: Imaging of phosphorylated IRS1 in IR condensates in HepG2 cells; type: cell-based, human
Procedure: HepG2 cells, human liver spheroids, human primary adipocytes and human tissue liver sections were fixed in 4% PFA (VWR, BT140770-10X10) in PBS (Life Technologies, AM9625) for 10 minutes at room temperature. Cells were washed three times for 5 minutes in PBS, permeabilized with 0.5% TritonX100 (Sigma Aldrich, X100) in PBS, washed three times for 5 minutes in PBS, and then blocked with 4% IgG-free BSA (VWR, 102643-516) for 15-60 minutes at room temperature. Afterwards, the cells were incubated with 1:500 or 1:1000 primary antibody (specific antibodies listed below) in 4% IgG-free BSA in PBS at 4° C. overnight. […]
To quantify pIRS1 fluorescent signal in IR puncta/condensates manually, Airyscan images were opened on Fiji as composite images. A circle or an oval was drawn around IR puncta using the oval selection tool and the average fluorescence intensity of pIRS1 in the circle or oval (=in the puncta/condensates) was determined using the measure tool on Fiji.
To quantify pIRS1 fluorescent signal in IR puncta/condensates computationally using Fiji, 3D object counter tool was used. […] 3D object counter tool then determined the intensity pIRS1 channel in the identified IR puncta. pIRS1 signal intensity was then background subtracted by a threshold determined by averaging the background intensity in a rectangular region outside of the cells.

[3] = test system: IR condensates; test: Immunofluorescence for IR in human liver tissue from donors; type: in vivo; conditions: liver tissue of donors with T2D treated with metformin vs T2D and healthy donors
Description: (§1) Images were then processed using Fiji/ImageJ v2.1.0/153c.
as §1

[4] = insulin-sensitive HepG2 cells, 3 nM insulin 4 hours

insulin: insulin (Sigma Aldrich, I9278-5ML) used for acute stimulation and chronic physiological or pathological exposure
expression of the lipogenic gene FASN after insulin stimulation ([1]; cells exposed to pathologic levels (3 nM) of insulin for two days): unchanged | expression of gluconeogenesis genes [1, 4]: downregulation of gluconeogenesis genes | expression of lipogenic genes [1, 4]: upregulation of lipogenic genes | intensity of pIRS1 at IR condensates ([2]; insulin-sensitive HepG2 cells, 3 nM insulin 5 min (FIG. 17F)): increased

CN(C)C(=N)N=C(N)N [metformin, reference compound]
IR signal in condensates/puncta of hepatocytes [3]: increased IR signals in condensates that approximated those seen in tissue from healthy donors; also recorded: IR punctate signals similar to those observed in healthy tissues | levels of phosphorylated IRS1 in IR-containing condensates ([2]; insulin-resistant cells + metformin, 3 nM insulin 5 min (FIG. 18C)): partially rescued
